Calls of active or inactive are those of the source. The rule behind the calls is not given here.
Columns and labels:
[1] = molecular target: Cav1.2 (voltage-dependent L-type calcium channel subunit alpha-1C) (Rattus norvegicus, UniProt P22002); test: Inhibition of rat Cav1.2 expressed in human tsA-201 cells co-expressing Cavbeta1b/Cavalpha2delta1 assessed as tonic block at 10 uM at holding potential of -90 mV by whole cell patch clamp method relative to control; type: cell-based
[2] = molecular target: Voltage-dependent T-type calcium channel subunit alpha-1H (Homo sapiens) (UniProt O95180); test: Inhibition of human Cav3.2 alpha1 expressed in human tsA-201 cells assessed as tonic block at 10 uM at holding potential of -110 mV by whole cell patch clamp method; type: cell-based
Sequence of Voltage-dependent T-type calcium channel subunit alpha-1H (Homo sapiens) (O95180 whole entry): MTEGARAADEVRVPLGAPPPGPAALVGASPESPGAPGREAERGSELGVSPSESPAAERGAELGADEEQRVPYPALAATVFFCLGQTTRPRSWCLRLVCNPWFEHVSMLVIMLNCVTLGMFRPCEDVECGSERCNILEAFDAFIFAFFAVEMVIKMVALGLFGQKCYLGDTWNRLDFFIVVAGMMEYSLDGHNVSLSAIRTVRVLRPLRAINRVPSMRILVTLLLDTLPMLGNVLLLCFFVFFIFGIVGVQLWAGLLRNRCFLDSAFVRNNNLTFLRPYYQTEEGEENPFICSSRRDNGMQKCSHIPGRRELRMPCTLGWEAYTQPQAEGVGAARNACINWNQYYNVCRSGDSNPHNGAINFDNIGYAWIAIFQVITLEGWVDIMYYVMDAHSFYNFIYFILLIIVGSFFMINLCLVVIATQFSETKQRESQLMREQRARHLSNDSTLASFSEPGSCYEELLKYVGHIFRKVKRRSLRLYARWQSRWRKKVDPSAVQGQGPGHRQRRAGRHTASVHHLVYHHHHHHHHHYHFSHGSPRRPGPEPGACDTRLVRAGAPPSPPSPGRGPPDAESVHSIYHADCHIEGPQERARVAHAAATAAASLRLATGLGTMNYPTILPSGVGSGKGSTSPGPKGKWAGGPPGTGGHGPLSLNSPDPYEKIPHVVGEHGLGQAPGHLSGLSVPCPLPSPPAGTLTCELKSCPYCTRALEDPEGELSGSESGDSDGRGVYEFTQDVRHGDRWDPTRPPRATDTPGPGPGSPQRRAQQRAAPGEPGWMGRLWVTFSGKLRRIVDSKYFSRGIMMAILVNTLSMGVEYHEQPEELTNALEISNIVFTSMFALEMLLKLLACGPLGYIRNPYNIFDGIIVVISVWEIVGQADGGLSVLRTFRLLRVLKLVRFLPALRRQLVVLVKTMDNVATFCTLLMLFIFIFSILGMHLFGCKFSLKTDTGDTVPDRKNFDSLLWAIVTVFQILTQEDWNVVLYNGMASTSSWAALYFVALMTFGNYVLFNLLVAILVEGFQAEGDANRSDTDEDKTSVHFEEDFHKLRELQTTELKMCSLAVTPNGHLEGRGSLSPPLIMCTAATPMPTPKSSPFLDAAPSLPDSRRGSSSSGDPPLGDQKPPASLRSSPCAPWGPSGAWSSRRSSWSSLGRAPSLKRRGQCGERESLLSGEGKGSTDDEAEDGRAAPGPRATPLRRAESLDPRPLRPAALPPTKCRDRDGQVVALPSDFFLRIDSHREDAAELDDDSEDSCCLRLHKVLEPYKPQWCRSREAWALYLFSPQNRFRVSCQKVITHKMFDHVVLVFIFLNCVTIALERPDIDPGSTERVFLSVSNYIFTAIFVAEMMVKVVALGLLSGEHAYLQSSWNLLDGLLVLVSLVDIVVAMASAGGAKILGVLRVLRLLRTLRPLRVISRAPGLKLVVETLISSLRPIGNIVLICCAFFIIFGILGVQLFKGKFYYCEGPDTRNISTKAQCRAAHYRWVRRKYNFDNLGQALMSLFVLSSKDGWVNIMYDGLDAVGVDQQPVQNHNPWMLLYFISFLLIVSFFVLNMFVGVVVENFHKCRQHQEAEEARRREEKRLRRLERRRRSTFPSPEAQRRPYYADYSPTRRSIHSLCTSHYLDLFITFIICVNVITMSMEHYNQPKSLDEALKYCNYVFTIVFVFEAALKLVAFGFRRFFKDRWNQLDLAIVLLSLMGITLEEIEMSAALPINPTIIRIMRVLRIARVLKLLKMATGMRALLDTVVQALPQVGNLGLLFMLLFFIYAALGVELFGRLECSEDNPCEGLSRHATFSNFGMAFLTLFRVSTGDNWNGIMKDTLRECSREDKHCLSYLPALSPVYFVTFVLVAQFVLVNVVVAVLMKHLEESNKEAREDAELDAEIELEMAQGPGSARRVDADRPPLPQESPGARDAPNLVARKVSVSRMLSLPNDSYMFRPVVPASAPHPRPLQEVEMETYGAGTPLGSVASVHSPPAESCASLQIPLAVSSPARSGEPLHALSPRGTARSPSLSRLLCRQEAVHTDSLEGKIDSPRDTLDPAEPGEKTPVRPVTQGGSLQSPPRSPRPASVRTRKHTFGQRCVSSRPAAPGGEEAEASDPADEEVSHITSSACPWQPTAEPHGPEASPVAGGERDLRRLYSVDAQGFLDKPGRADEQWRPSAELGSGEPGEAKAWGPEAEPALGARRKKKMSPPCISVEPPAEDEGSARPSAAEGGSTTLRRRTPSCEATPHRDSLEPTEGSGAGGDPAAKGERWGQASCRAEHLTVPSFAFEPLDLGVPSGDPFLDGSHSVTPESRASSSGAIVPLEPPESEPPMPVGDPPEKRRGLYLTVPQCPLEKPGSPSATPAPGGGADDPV

Sequence of Cav1.2 (voltage-dependent L-type calcium channel subunit alpha-1C) (P22002 whole entry): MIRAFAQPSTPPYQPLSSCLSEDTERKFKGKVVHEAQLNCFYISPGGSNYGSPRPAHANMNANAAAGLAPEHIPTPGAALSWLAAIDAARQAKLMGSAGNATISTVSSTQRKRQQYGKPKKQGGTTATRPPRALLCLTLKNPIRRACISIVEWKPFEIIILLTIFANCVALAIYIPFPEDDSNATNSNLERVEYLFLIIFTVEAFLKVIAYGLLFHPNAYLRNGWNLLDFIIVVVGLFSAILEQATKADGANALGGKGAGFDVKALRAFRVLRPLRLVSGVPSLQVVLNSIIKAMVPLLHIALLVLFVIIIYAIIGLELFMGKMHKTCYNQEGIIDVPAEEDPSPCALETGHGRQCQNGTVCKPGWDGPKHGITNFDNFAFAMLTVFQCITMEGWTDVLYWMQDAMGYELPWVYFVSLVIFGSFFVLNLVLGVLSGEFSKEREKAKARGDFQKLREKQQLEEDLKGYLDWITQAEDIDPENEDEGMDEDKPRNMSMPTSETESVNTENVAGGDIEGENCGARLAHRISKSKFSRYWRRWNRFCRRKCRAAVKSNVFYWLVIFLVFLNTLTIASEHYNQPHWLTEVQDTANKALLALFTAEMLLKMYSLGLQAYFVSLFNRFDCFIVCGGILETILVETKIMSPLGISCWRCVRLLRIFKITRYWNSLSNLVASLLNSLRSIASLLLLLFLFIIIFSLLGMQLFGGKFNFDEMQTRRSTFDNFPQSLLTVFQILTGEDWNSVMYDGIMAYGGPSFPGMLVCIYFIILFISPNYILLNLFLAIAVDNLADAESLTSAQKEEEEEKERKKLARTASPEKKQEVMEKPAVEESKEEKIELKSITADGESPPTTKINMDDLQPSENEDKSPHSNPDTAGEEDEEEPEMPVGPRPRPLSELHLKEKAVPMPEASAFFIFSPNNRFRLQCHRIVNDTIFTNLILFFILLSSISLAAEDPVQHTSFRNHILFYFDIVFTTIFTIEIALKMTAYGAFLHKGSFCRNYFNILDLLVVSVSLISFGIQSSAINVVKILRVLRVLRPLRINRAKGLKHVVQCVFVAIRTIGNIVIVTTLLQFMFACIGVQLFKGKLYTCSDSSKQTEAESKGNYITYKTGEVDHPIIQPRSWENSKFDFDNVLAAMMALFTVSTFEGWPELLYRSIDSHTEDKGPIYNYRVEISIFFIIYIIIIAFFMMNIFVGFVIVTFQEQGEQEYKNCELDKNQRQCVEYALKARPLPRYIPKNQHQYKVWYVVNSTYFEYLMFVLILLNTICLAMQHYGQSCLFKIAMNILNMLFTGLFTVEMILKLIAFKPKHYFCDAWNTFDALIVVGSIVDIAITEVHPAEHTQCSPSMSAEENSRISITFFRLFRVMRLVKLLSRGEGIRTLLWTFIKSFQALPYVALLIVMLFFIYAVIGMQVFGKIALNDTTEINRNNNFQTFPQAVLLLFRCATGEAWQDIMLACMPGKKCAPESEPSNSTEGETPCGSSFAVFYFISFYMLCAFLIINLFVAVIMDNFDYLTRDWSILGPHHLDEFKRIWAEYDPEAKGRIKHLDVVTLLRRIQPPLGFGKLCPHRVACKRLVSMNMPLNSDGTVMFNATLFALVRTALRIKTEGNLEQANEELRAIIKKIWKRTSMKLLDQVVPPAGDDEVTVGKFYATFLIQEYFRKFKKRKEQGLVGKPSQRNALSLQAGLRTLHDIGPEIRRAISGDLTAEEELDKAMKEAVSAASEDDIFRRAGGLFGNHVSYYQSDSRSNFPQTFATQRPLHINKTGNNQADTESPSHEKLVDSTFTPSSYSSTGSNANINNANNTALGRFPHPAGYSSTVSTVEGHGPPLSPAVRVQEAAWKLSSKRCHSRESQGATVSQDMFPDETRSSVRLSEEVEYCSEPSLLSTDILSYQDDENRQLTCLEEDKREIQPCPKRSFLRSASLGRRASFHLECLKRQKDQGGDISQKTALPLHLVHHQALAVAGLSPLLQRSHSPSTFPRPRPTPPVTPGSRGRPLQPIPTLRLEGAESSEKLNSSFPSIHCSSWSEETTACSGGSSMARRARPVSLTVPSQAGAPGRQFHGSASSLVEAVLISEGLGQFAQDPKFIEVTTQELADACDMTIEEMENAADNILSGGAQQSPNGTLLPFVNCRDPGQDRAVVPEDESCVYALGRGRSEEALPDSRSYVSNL

Row | inhibition [2] | SMILES | inhibition at 10 µM [1] [%]
1 | inactive | CCOC(=O)C1=C(C)NC(=O)N(CCC#N)C1c1cccc([N+](=O)[O-])c1 (stereo not drawn) | < 50
2 | inactive | CCOC(=O)C1=C(C)NC(=O)N(CCC(=O)N(C)Cc2ccccc2)C1c1cccc([N+](=O)[O-])c1 (stereo not drawn) | < 50
3 | Active | CCOC(=O)CCN1C(=O)NC(C)=C(C(=O)OCC)C1c1cccc([N+](=O)[O-])c1 (stereo not drawn) | > 75
4 | inactive | CCOC(=O)C1=C(C)NC(=O)N(CCC(=O)O)C1c1cccc([N+](=O)[O-])c1 (stereo not drawn) | < 50
5 | Active | C#CCOC(=O)CCN1C(=O)NC(C)=C(C(=O)OCC)C1c1cccc([N+](=O)[O-])c1 (stereo not drawn) | 50
6 | inactive | CCOC(=O)C1=C(C)NC(=O)N(CCC(=O)OC)C1c1cccc([N+](=O)[O-])c1 (stereo not drawn) | < 50

Continued, compound first:

Row | SMILES | inhibition [2] | inhibition at 10 µM [1] [%]
7 | CCOC(=O)C1=C(C)NC(=O)N(CCC(N)=O)C1c1cccc([N+](=O)[O-])c1 (stereo not drawn) | inactive | < 50
8 | CCOC(=O)C1=C(C)NC(=O)N(CCC(=O)OCc2cn(Cc3ccccc3)nn2)C1c1cccc([N+](=O)[O-])c1 (stereo not drawn) | Active | < 50
9 | CCOC(=O)C1=C(C)NC(=O)N(CCC(=O)OCc2cn(CC(=O)c3ccccc3)nn2)C1c1cccc([N+](=O)[O-])c1 (stereo not drawn) | Active | < 50
10 | CCOC(=O)C1=C(C)NC(=O)N(CCC(=O)OCCOC)C1c1cccc([N+](=O)[O-])c1 (stereo not drawn) | Active | 50
11 | CCOC(=O)C1=C(C)NC(=O)N(CCC(=O)NCc2ccccc2)C1c1cccc([N+](=O)[O-])c1 (stereo not drawn) | inactive | < 50
12 | CCOC(=O)C1=C(C)NC(=O)N(CCC(=O)OC(C)C)C1c1cccc([N+](=O)[O-])c1 (stereo not drawn) | inactive | < 50
13 | CCOC(=O)C1=C(C)NC(=O)N(CCC(=O)NCC(c2ccccc2)c2ccccc2)C1c1cccc([N+](=O)[O-])c1 (stereo not drawn) | inactive | < 50
14 | CCOC(=O)C1=C(C)NC(=O)N(CCC(=O)NN)C1c1cccc([N+](=O)[O-])c1 (stereo not drawn) | inactive | < 50

Source: ChEMBL document CHEMBL4020712, “Synthesis of new N3-substituted dihydropyrimidine derivatives as L-/T- type calcium channel blockers” (Eur J Med Chem, 2017)
